Laboratory results from patent publication US11377442B2, “Small molecule agonists and antagonists of NR2F6 activity” (ZANDER THERAPEUTICS, INC., priority 2016, dated 2022).
Read-outs that look alike come from different tables or passages of the source.

Legend:
Format in all cases: cell-based
NR2F6 LBD = biological target: T1, NR2F6 LBD (Homo sapiens, UniProt P10588); assay: NR2F6 LBD transient transfection; conditions: LBD
T1 construct: expressed in transfected cells
T1 sequence (P10588 165-393 limits assumed): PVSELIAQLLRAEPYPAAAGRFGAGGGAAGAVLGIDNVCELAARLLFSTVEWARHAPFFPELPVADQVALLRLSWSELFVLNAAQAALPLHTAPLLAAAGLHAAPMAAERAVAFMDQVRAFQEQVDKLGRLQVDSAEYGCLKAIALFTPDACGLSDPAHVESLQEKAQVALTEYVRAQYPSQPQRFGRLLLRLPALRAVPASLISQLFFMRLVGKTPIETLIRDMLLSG
Outline: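 LBD-transfected cells treated at 40, 10, 2 and 0.5 μM (4 replicates); cytotoxicity measured in parallel, normalized to DMSO (0%) and zero signal (100%). Higher concentrations excluded where signal loss reflected toxicity.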

HEK293 pGL4 = assay: Firefly_pGL signal, cmpd/DMSO (pGL4 control cells); conditions: Homo sapiens
Renilla = Renilla signal in NR2F6 agonist screening, cmpd/DMSO; conditions: Renilla, F4
NR2F6 = biological target: T2, NR2F6 (Homo sapiens, UniProt P10588); assay: NR2F6 agonist screening, Firefly signal cmpd/DMSO; conditions: F4
T2 construct: expressed in transfected cells; also transient transfection
T2 sequence (P10588 1-404): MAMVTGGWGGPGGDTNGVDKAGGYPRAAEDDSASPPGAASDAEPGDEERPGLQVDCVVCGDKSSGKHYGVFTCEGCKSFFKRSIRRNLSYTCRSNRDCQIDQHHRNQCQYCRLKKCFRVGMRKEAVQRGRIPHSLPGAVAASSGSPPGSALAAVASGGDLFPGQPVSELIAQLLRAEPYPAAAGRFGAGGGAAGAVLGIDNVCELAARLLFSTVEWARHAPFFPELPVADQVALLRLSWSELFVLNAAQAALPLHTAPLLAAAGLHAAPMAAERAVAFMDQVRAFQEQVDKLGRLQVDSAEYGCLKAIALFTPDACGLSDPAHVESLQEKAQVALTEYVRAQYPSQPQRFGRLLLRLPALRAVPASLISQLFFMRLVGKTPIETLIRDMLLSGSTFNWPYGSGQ

[1] = read-out: Renilla, F4, cmpd/DMSO (mean)
[2] = 1% FBS, read-out: Renilla, F4, 1% FBS, cmpd/DMSO (mean)
[3] = 10% FBS, read-out: Renilla, F4, 10% FBS, cmpd/DMSO (mean)

CC(=O)Nc1ccc(S(=O)(=O)[C@H]2CS(=O)(=O)C[C@@H]2NC2CC2)cc1 [Compound D133]
1.5: Firefly, F4, 10% FBS, cmpd/DMSO (mean) (NR2F6; 0.5 uM)
1.3: fold induction at 0.5 µM (HEK293 pGL4; HEK293, pGL4, 1% FBS, 0.5 uM, read-out: Firefly, pGL4, 1% FBS, cmpd/DMSO (mean)) | fold induction at 10 µM (HEK293 pGL4; HEK293, pGL4, 1% FBS, 10 uM, read-out: Firefly, pGL4, 1% FBS, cmpd/DMSO (mean)) | fold induction at 10 µM (HEK293 pGL4; HEK293, pGL4, 10% FBS, 10 uM, read-out: Firefly, pGL4, 10% FBS, cmpd/DMSO (mean)) | Firefly F4, cmpd/DMSO (mean) (NR2F6; 40 uM)
0.8: Firefly, F4, 1% FBS, cmpd/DMSO (mean) (NR2F6; 0.5 uM) | Firefly, F4, 1% FBS, cmpd/DMSO (mean) (NR2F6; 2 uM)
1.1: Firefly LBD, cmpd/DMSO (mean) (NR2F6 LBD; 0.5 uM) | Firefly LBD, cmpd/DMSO (mean) (NR2F6 LBD; 2 uM) | Firefly LBD, cmpd/DMSO (mean) (NR2F6 LBD; 40 uM) | fold induction at 0.5 µM (HEK293 pGL4; HEK293, 0.5 uM, pGL4, read-out: Firefly pGL4, cmpd/DMSO (mean)) | fold induction at 2 µM (HEK293 pGL4; HEK293, 2 uM, pGL4, read-out: Firefly pGL4, cmpd/DMSO (mean)) | fold induction at 40 µM (HEK293 pGL4; HEK293, 40 uM, pGL4, read-out: Firefly pGL4, cmpd/DMSO (mean)) | fold induction at 2 µM (HEK293 pGL4; HEK293, pGL4, 1% FBS, 2 uM, read-out: Firefly, pGL4, 1% FBS, cmpd/DMSO (mean)) | fold induction at 10 µM (Renilla; [1]) | fold induction at 40 µM (Renilla; [1]) | fold induction at 40 µM (Renilla; [2])
1: fold induction at 40 µM (HEK293 pGL4; HEK293, pGL4, 1% FBS, 40 uM, read-out: Firefly, pGL4, 1% FBS, cmpd/DMSO (mean)) | fold induction at 0.5 µM (Renilla; [1]) | fold induction at 2 µM (Renilla; [1]) | fold induction at 0.5 µM (Renilla; [2]) | fold induction at 2 µM (Renilla; [2]) | fold induction at 10 µM (Renilla; [2]) | fold induction at 10 µM (Renilla; [3]) | fold induction at 40 µM (Renilla; [3])
1.9: fold induction at 10 µM (HEK293 pGL4; HEK293, 10 uM, pGL4, read-out: Firefly pGL4, cmpd/DMSO (mean))
1.8: Firefly F4, cmpd/DMSO (mean) (NR2F6; 10 uM)
1.0: Firefly F4, cmpd/DMSO (mean) (NR2F6; 0.5 uM) | Firefly, F4, 10% FBS, cmpd/DMSO (mean) (NR2F6; 10 uM) | Firefly, F4, 10% FBS, cmpd/DMSO (mean) (NR2F6; 40 uM)
1.4: Firefly LBD, cmpd/DMSO (mean) (NR2F6 LBD; 10 uM) | Firefly F4, cmpd/DMSO (mean) (NR2F6; 2 uM)
1.2: fold induction at 40 µM (HEK293 pGL4; HEK293, pGL4, 10% FBS, 40 uM, read-out: Firefly, pGL4, 10% FBS, cmpd/DMSO (mean)) | Firefly, F4, 1% FBS, cmpd/DMSO (mean) (NR2F6; 10 uM)
0.9: fold induction at 0.5 µM (HEK293 pGL4; HEK293, pGL4, 10% FBS, 0.5 uM, read-out: Firefly, pGL4, 10% FBS, cmpd/DMSO (mean)) | fold induction at 2 µM (HEK293 pGL4; HEK293, pGL4, 10% FBS, 2 uM, read-out: Firefly, pGL4, 10% FBS, cmpd/DMSO (mean)) | fold induction at 0.5 µM (Renilla; [3]) | fold induction at 2 µM (Renilla; [3]) | Firefly, F4, 1% FBS, cmpd/DMSO (mean) (NR2F6; 40 uM) | Firefly, F4, 10% FBS, cmpd/DMSO (mean) (NR2F6; 2 uM)
